Reference: PubChem BioAssay (NCI)
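Results reflect a 48-hour exposure of cells in 96-well plates to compound at five concentrations. TGI: total growth inhibition.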

Assays:
Experiment in all cases: NCI-60 cell line screen, 48 h
[1] = system: DLD-1 colon
[2] = system: LXFL 529 NSCLC
[3] = system: KM20L2 colon
[4] = system: XF 498 CNS
[5] = system: DMS 273 small cell lung
[6] = system: DMS 114 small cell lung
[7] = system: HOP-18 NSCLC
[8] = system: M19-MEL melanoma
[9] = system: RXF-631 renal

Compound	TGI [1] [µM]	TGI [2] [µM]	TGI [3] [µM]	TGI [4] [µM]	TGI [5] [µM]	TGI [6] [µM]	TGI [7] [µM]	TGI [8] [µM]	TGI [9] [µM]
CC(=O)NC(ON1C(=O)COc2ccccc21)C(Cl)(Cl)Cl (stereo not drawn)	> 100	> 100	> 100	> 100	> 100				
COc1ccc(Cc2cc(OC)c(OC)c(OC)c2)cc1O	> 100	> 100	> 100	> 100	> 100	0.137	> 31.6	> 100	> 100
COC(=O)C(C(=O)C(=O)Nc1c(Cl)cc([N+](=O)[O-])cc1Cl)c1nc2cc(C)c(C)cc2[nH]c1=O (stereo not drawn)	> 100	> 100	> 100		> 100	> 100	> 100	> 100	> 100
CC(=O)N(/N=C\c1ccc([N+](=O)[O-])cc1)c1ccccc1	> 100		> 100	> 100	> 100	> 100	> 100	> 100	> 100
CCN(CC)CC(O)CNc1ccc(NCC(O)CCl)c2c1C(=O)c1ccccc1C2=O (stereo not drawn)	38.9	15.8	18.5	26.9	13.6			22.1	
Cc1ccc(/C=C/C(=O)c2sc(C(N)=S)nc2C)cc1	> 100		> 100		> 100		> 100	> 100	
Cc1nc2ccc(N=Nc3c(O)ccc4ccccc34)cc2[nH]1	66.2	37.3	> 100		33.5	63		42.7	
CSc1nc2nc(C)c(C)nc2c(=O)[nH]1	> 100	> 100	> 100	> 100	> 100	> 100	> 100	> 100	
CC(C)CC(=O)N1CCN(C(=O)CC(C)C)c2ccccc21	> 100	> 100	> 100	> 100	> 100	> 100	> 100	> 100	> 100
COC(=O)C(CCC1(C)OCCO1)C(C)=O (stereo not drawn)	> 100	> 100	> 100	> 100	> 100	> 100	> 100	> 100	> 100
Cc1cc(=O)cc2sc3cc(Cl)ccc3nc1-2	> 100	> 100	30.1	31.3	24.6		> 100	31.2	
CC(C)Cc1ccc(C(C)/C=C2\CCC(CN3CCOCC3)C2=O)cc1 (stereo not drawn)	9.36	4.09	31.5	30		42.4	19.2	28.8	41.2
Cn1c(=O)c2c(ncn2CCCCn2ccnc2[N+](=O)[O-])n(C)c1=O		> 100	> 100	> 100	> 100	> 100		> 100	
N#Cc1ccc(Nc2cnc3cc(N)ccc3n2)cc1	> 100	> 100	> 100	> 100	> 100	> 100		> 100	
O=C1CCCCC1C1(O)C(=O)Nc2cc(F)ccc21 (stereo not drawn)	> 100	> 100	> 100	> 100	> 100	> 100	> 100	> 100	
CNC(=S)NNC(=O)c1c(C)nc2sccn12	> 100	> 100	> 100	> 100	> 100		> 100	> 100	> 100
COC1=C(C)C(=O)C2C(C1=O)C(c1ccc(OC)c(OC)c1)[C@H]2C (stereo partly drawn)	> 100	> 100		> 100	> 100			> 100	> 100
